# Results taken from patent US20240216354A1, “IMMUNOMODULATORY IMIDE DRUGS AS ZETA-CHAIN-ASSOCIATED PROTEIN KINASE 70 (ZAP70) AGONISTS AND USES THEREOF” (Dana-Farber Cancer Institute, Inc., priority 2019, published 2024).
# Experiments:
# primary NK cells = assay: Primary NK cell viable cell number by trypan-blue dye exclusion; format: cell-based, human; details: primary NK cells #1, #2, pomalidomide 0-0.5 μM, 24 h
# Procedure: Isolated primary NK cells from two healthy volunteers were cultured for 24 h with pomalidomide (0-0.5 μM). Viable cell number was measured by trypan-blue dye exclusion.
# Jurkat cells = assay: Jurkat cell growth by MTT assay; format: cell-based; details: 0.01-1 μM, 72 h
# Procedure: (§1) (A) PBMCs were cultured with pomalidomide (“Pom”) (0.01-1 μM) for 16 h. […] (B) PBMCs were cultured with pomalidomide (0.1 and 1 μM) for the indicated time periods. (C) PBMCs were cultured with lenalidomide (“Len”) (1 μM) for 16 h. (D) Primary T-cells from healthy volunteer were cultured with pomalidomide (0.25-1 μM) for 16 h. (E) Jurkat cells were cultured with pomalidomide (0.5 and 1 μM) for 16 h. Whole cell lysates were subjected to immunoblotting (A-E) using indicated Abs. (F) Jurkat cells were cultured with pomalidomide (0.01-1 μM) or lenalidomide (0.01-1 μM) for 72 h. Cell growth was assessed by MTT assay.
# granzyme-B (GZM-B) [1] = assay: GZM-B expression in primary NK cells (immunoblotting); format: cell-based, human; details: primary NK cells #1, #2, pomalidomide 0.3-1 μM, 24 h
# Procedure: (§2) (A) KHYG1 cells were cultured with pomalidomide (0.25-1 μM) for 24 h. (B) Isolated primary NK cells from healthy volunteers (#1, #2) were cultured with pomalidomide (0.3-1 μM) for 24 h. (C) KHYG-1 cells were transfected with Scsi or Zap-70si. After 48 h, cells were cultured for 24 h in the absence or presence (0.5 μM) of pomalidomide. Whole cell lysates and RNAs were subjected to immunoblotting using indicated Abs.
# Zap-70 [2] = target: T1, Zap-70 (Homo sapiens, UniProt P43403); assay: PathScan Phospho-Zap-70 (Tyr319) Sandwich ELISA in Jurkat cells; format: cell-based; details: lenalidomide (1 and 3 μM) or pomalidomide (1 and 3 μM), 4 h and 8 h, Len<Pom
# T1 sequence (P43403 1-619): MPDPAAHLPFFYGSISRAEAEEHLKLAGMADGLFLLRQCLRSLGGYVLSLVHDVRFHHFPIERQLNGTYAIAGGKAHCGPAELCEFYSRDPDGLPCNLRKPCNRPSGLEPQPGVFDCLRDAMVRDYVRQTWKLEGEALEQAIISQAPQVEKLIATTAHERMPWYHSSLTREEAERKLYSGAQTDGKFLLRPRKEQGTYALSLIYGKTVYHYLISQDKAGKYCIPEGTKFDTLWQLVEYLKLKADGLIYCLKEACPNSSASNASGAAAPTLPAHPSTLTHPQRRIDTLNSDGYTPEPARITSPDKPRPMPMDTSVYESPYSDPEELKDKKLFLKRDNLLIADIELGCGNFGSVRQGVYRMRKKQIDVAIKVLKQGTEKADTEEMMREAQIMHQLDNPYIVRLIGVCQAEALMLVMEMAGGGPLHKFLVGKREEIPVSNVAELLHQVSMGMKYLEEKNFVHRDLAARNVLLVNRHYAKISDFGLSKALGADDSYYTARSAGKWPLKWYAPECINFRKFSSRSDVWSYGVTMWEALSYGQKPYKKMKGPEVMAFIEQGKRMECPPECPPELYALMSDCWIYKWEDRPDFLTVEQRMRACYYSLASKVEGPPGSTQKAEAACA
# Procedure: (A) Jurkat cells were transfected with scrambled (Sc) siRNA or Zap-70 siRNA. Whole cell lysates were subjected to immunoblotting using indicated Abs. (B) Jurkat cells were treated with lenalidomide ([…]) or pomalidomide (1 and 3 μM) for 4 h and 8 h. Whole cell lysates were subjected to p-Zap ELISA assay. (C) Jurkat whole cell lysates were incubated with pomalidomide-beads in the presence or absence of competitor (1 mM free pomalidomide) for 1 h. After elution, samples were subjected to immunoblotting using anti-Zap-70 Ab. (D) Saturation-transfer difference resulting from the binding of pomalidomide to Zap-70. Pomalidomide is at 320 μM and Zap-70 is approximately 2 μM in deuterated PBS solution. […] (E) Saturation-transfer difference resulting from the binding of pomalidomide to Zap-70 in the presence of 2.56 mMATP. Pomalidomide is at 320 μM and Zap-70 is approximately 2 μM in deuterated PBS solution. […] Note that both ATP and pomalidomide show binding the Zap-70. (F) Non-cell based Zap-70 kinase assay was carried out, according to manufacturer's protocol.
# Phosphorylation of Zap-70 was evaluated using PathScan Phospho-Zap-70 (Tyr319) Sandwich ELISA Kit (Cell Signaling Technology), according to manufacturer's protocol.
# Zap-70 [3] = target: T1, Zap-70; assay: Immunoblotting of p-Zap-70 and p-LAT in primary T-cells from healthy volunteer; format: cell-based; design: endogenous in cells; host or cells: primary PBMCs, primary T cells and primary NK cells from healthy volunteers; details: pomalidomide 0.25-1 μM, 16 h
# Procedure: as §1
# granzyme-B (GZM-B) [4] = assay: GZM-B expression in KHYG-1 cells (immunoblotting, real-time qPCR); format: cell-based; details: pomalidomide 0.25-1 μM, 24 h
# Procedure: as §2
# (A) KHYG-1 cells were transfected with Scsi or CRBNsi. After 48 h, cells were cultured in the absence or presence of pomalidomide (0.5 μM) for 24 h, and cell lysates immunoblotted with indicated Abs. (B) KHYG-1 cells were transfected with Scsi or Zap-70si, and then cultured for 72 h with pomalidomide (0.25 μM), in the absence of IL-2. Cells were counted and incubated with calcein AM-labeled U266 for 4 h at indicated effector/target (E/T) ratios.
# (A) KHYG-1 cells were transfected with CRBN, IKZF1, or IKZF3 siRNA. The transfectants were then cultured for 24 h with pomalidomide (0.5 μM). The arrow indicates CRBN. (B) KHYG-1 cells were cultured with pomalidomide for 24 h (0.5 μM), in the presence or absence of bortezomib (BTZ; 2.5 and 5 nM). (C, D) KHYG-1 cells were cultured for 24 h with lenalidomide, pomalidomide, or CC-220 (i.e., iberdomide) (0.01-1 μM). Whole cell lysates and RNAs were subjected to immunoblotting using indicated Abs (C) and real-time q-PCR (D), respectively.
smiles,measurement,setting,value
Nc1cccc2c1C(=O)N(C1CCC(=O)NC1=O)C2=O (stereo not shown) [pomalidomide],NK cell growth (viable cell number),primary NK cells,without significantly effecting NK cell growth
same,proliferation / cell growth (MTT),Jurkat cells,without altering their proliferation
same,GZM-B expression,granzyme-B (GZM-B) [1],upregulated GZM-B expression
same,p-Zap-70 (Tyr319) by ELISA,Zap-70 [2],increased p-Zap-70 (Tyr319) in a dose-dependent fashion
same,p-LAT (immunoblotting),Zap-70 [3],induced p-Zap-70 and p-LAT in primary T cells
same,p-Zap-70 (immunoblotting),Zap-70 [3],induced p-Zap-70 and p-LAT in primary T cells
same,GZM-B expression,granzyme-B (GZM-B) [4],upregulated GZM-B expression
